# Experimental data published in patent US20140296153A1, “Oligodendrocyte Differentiation” (priority 2011, published 2014).
# Key:
# SVZ cells [1] = test: SVZ self-renewal assay (secondary neurospheres); format: cell-based, mouse; conditions: primary neurospheres exposed to Hp 1 μM for 6 days, replated without Hp
# Experimental: Neurosphere forming and self-renewal assays were performed on SVZ cells seeded at clonal density, 2500 cells per well in 24-well cell culture plates in SFM containing 5 ng/ml EGF and 2.5 ng/ml FGF-2 and supplemented or not (control) with 1 μM Hp or 50 ng.ml^−1 hepatocyte growth factor (carrier free recombinant human HGF, R&D Systems, Lille, France). After 6 days, the numbers of primary neurospheres were determined. For self-renewal assay, neurospheres were collected, dissociated as single cells and seeded in SFM containing 5 ng/ml EGF and 2.5 ng/ml FGF-2 in 24 well plates. After 6 days, the number of secondary neurospheres was counted.
# For the SVZ neurosphere forming and self-renewal assays the experiments were replicated in five independent culture preparations and each experimental condition was assayed in four different coverslips.
# Olig2 = test: Western blotting analysis of Olig2; format: cell-based, mouse; conditions: 7 days, n=8
# Experimental: Western blotting analysis of Olig2 was performed from 6- to 8-days-old neurospheres that were plated onto six-well plates previously coated with poly-D-lysine, and that were allowed to adhere for 48 h in the presence of SFM, and treated in the absence (control) or in the presence of Hp and/or AM251 for 7 days. For the evaluation of Olig2 protein levels in control versus Hp-treated condition, the medium was renewed after 48 h. Seven days after the first treatment, the cells were washed with 0.15M phosphate-buffered saline (PBS) and harvested by scraping in the lysis buffer [0.15 M NaCl, 0.05 M Tris-base, 5 mM EGTA, 1% Triton X-100, 0.5% DOC, 0.1% SDS, 10 mM dithiothreitol (DTT), containing a protease inhibitor cocktail tablet (Roche Diagnostics GmbH, Germany), pH7.4 at 4° C.].
# The supernatant was collected after centrifugation at 14 000 rpm for 10 min, at 4° C. Protein concentration was measured by the BCA method and samples were treated with SDS-PAGE sample buffer [6× concentrated: 350 mM Tris, 10% (w/v) SDS, 30% (v/v) glycerol, 0.6 M DTT, 0.06% (w/v) bromophenol blue], boiled 5 min at 95° C., and stored at −20° C. until use for Western blotting analysis. […]
# CB1R = CB1R (Homo sapiens, UniProt P21554); conditions: cited from earlier work
# SVZ cells [2] = test: Single cell calcium imaging (SCCI) of oligodendrocytic differentiation; format: cell-based, mouse; conditions: 7 days
# Experimental: To investigate the influence of Hp on oligodendrocytic differentiation, SVZ neurospheres were allowed to develop for 7 days Hp (100 nm, 1 μM), in serum free medium devoid of growth factor at 37° C.
# To determine the functional differentiation pattern of SVZ cells, we analyzed the variations of intracellular calcium-free levels ([Ca^2+]i) in single cells following stimulation with 50 mM KCl, 100 μM histamine (Sigma-Aldrich, St. Louis, Mo. USA) and 0.1 U/ml thrombin (Sigma-Aldrich) stimulation. KCl depolarization causes an increase in [Ca^2+]i in neurons, whereas stimulation with histamine leads to an increase in [Ca^2+]i in stem/progenitor cells, while thrombin leads to an increase in [Ca^2+]i in oligodendrocytes. SVZ cultures were loaded for 40 minutes with 5 μM Fura—2/AM (Molecular Probes, Carlsbad, Calif., USA), 0.1% fatty acid-free BSA, and 0.02% pluronic acid F-127 (Molecular Probes) in Krebs solution (132 mM NaCl, 4 mM KCl, 1.4 mM MgCl2, 1 mM CaCl2, 6 mM glucose, 10 mM HEPES, pH 7.4), in an incubator with 5% CO2 and 95% atmospheric air at 37° C. After a 10-minute postloading period at room temperature (RT) in the same medium without Fura-2/AM and pluronic acid, to obtain a complete hydrolysis of the probe, the glass coverslip was mounted on an RC-20 chamber in a PH3 platform (Warner Instruments, Hamden, Conn., USA) on the stage of an inverted fluorescence microscope (Axiovert 200, Carl Zeiss). […] The variations of [Ca^2+]i were evaluated by quantifying the ratio of the fluorescence emitted at 510 nm following alternate excitation (750 msec) at 340 and 380 nm, using a Lambda DG4 apparatus (Sutter Instrument, Novato, Calif., USA) and a 510 nm band-pass filter (Carl Zeiss) before fluorescence acquisition with a x40 objective and a CoolSNAP digital camera (Roper Scientific, Trenton, N.J., USA). […] KCl, histamine, and thrombin peaks given by the normalized ratios of fluorescence at 340/380 nm, at the proper time periods, were used to calculate the ratios of the responses to histamine/KCl (Hist/KCl-neuronal-like profile) and to thrombin/histamine (Throm/Hist-oligodendrocytic-like profile).
# Fluorescence images were recorded using an LSM 510 Meta confocal microscope or an Axioskop 2 Plus fluorescence microscope (both from Carl Zeiss). […] Percentages of TUNEL or BrdU immunoreactive cells in SVZ cell cultures were calculated from cell counts in five independent microscopic fields in each coverslip with a x40 objective (approximately 200 cells per field). […] For SCCl experiments, the percentage of oligodendrocytic-like responding cells (with a Thromb/Hist ratio above 1.3) was calculated on the basis of one microscopic field per coverslip, containing approximately 100 cells (magnification, ×40). […]
# CB1R, sequence (P21554 whole entry): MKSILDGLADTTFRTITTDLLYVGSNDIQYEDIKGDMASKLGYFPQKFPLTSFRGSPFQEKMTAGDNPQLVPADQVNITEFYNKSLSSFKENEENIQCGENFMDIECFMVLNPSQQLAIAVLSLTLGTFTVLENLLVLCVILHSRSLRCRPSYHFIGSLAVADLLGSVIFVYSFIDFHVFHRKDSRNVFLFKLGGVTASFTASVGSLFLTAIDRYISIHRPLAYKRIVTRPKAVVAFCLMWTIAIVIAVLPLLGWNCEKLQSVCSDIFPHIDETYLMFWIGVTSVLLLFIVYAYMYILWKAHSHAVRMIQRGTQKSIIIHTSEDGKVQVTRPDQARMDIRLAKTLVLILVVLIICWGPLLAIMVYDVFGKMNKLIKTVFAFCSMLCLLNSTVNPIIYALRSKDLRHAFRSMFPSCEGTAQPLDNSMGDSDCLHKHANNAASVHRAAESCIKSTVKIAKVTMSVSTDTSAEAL
smiles,measurement,setting,value
"CC(C)C[C@H](NC(=O)[C@H](Cc1ccccc1)NC(=O)[C@H](CCCCN)NC(=O)[C@H](Cc1ccccc1)NC(=O)[C@H](CC(N)=O)NC(=O)[C@@H](NC(=O)[C@@H]1CCCN1)C(C)C)C(=O)N[C@@H](CO)C(=O)N[C@@H](Cc1cnc[nH]1)C(=O)O [Hp, PVNFKFLSH]",number of secondary neurospheres (control 100%),SVZ cells [1],125.5±13.38%
same,"Olig2 protein levels normalized to β-actin, relative to control (100%)",Olig2; Hp 100 nM,136.9±10.94%
same,"Olig2 protein levels normalized to β-actin, relative to control (100%)",Olig2; Hp 1 μM,158.7±23.62%
same,activity at CB1R cannabinoid receptors,CB1R,CB1R receptor selective antagonist
same,cells responding with a Throm/Hist ratio above 1.3 (oligodendrocyte-like responding cells),"SVZ cells [2]; Hp 100 nM, 9 coverslips",15.84±3.85%
same,cells responding with a Throm/Hist ratio above 1.3 (oligodendrocyte-like responding cells),"SVZ cells [2]; Hp 1 μM, 12 coverslips",14.51±4.09%
same,cells responding with a Throm/Hist ratio above 1.3 (oligodendrocyte-like responding cells),"SVZ cells [2]; Hp treatment (100 nM or 1 μM), rounded",around 15%
